Test results: patent EP3064205A1, “Therapeutic use of isomeric forms of 2-(4-chlorophenyl)quinolin-4-yl)(piperidin-2-yl)methanol” (Glionova AB, priority 2015, dated 2016)
Like-named read-outs stand apart in the source and are kept apart here.

Columns and labels:
Experiment in all cases: 3D clonogenic assay (PDX)
Format in all cases: cell-based, human
[1] = system: GXA 3040; settings: GXA 3040, Asian Gastric; for IC50: Homo sapiens
Experimental: (§1) The anti-tumor efficacy of S1 in the patient-derived tumor xenograft (PDX) tumor panel was assessed, where the efficacy of S1 in PDX tumor panel in the 96-well format, in 10 concentrations in duplicate was performed. Colony formation of tumor cell suspensions in a soft-agar matrix was observed and quantified. The output is IC50 values and dose response-relationships based on number of colonies in control and treatment wells, as identified by an automated image analysis algorithm. Stock solution of S1 was prepared in 100% DMSO at 10 mM concentration (stored at -20°C) and reused for each experiment. Compound final test concentrations: Dilution series ½ i.e.: 50µM, 15, 5, 1.5, 0.5, 0.15, 0.05, 0.015, 0.005 and 0.0015.
(§2) Tumor xenografts (also referred to as patient-derived tumor xenografts) were passaged as subcutaneous xenografts in NMRI nu/nu mice. Tumor xenograft were removed from mice under sterile conditions, mechanically disaggregated and subsequently incubated with an enzyme cocktail consisting of collagenase type IV (41 U/mL), DNase I (125 U/mL), hyaluronidase type III (100 U/mL) and dispase II (1.0 U/mL) in RPMI 1640 medium at 37°C for 60 - 120 minutes. Cells were passed through sieves of 100 µm and 40 µm mesh size and washed with RPMI 1640 medium. The percentage of viable cells was determined in a Neubauer-hemocytometer using trypan blue exclusion. Aliquots of the cells were frozen down, and stored in liquid nitrogen.
(§3) The clonogenic assay test was carried out in 96 well plate format. For each test a frozen aliquot of tumor cells prepared from tumor xenografts was thawed and assay plates were prepared as follows: each test well contained 3 layers of equal volume, 2 layers of semi-solid medium (bottom and top layer), and one layer of medium supernatant, with or without test compound. The bottom layer consisted of 0.05 mL/well Iscove's Modified Dulbecco's Medium (Invitrogen), supplemented with 20% (v/v) fetal calf serum (Sigma), 0.01% (w/v) gentamicin (Invitrogen) and 0.75% (w/v) agar (BD Biosciences). Tumor cells were added to 0.05 mL of the same culture medium supplemented with 0.4% (w/v) agar and plated onto the bottom layer. After 24 h, test compounds were added after serial dilution in DMSO and transfer in cell culture medium, and left on the cells for the duration of the experiment (continuous exposure, 0.05 mL drug overlay). Every dish included six untreated control wells and drug-treated groups in duplicate at 10 concentrations. Cultures were incubated at 37 °C and 7.5% CO2 in a humidified atmosphere for 8 to 13 days and monitored closely for colony growth using an inverted microscope. Within this period, ex vivo tumor growth lead to the formation of colonies with a diameter of >50 µm. At the time of maximum colony formation, counts were performed with an automatic image analysis system. 24 h prior to evaluation, vital colonies were stained with a sterile aqueous solution of 2-(4-iodophenyl)-3-(4-nitrophenyl)-5-phenyltetrazolium chloride (1 mg/mL, 100 µL/well). Sigmoidal concentration-response curves were fitted to the data points obtained for each tumor model using 4 parameter non-linear curve fit (Oncotest Warehouse Software). IC50 values are reported as relative IC50 values, being the concentration of test compound that give a response (inhibition of colony formation/viability) half way between the top and bottom plateau of the sigmoidal concentration-response curve (inflection point of the curve), or as absolute IC50 values, being the concentration of test compound at the intersection of the concentration-response curves with T/C = 50%. For calculation of mean IC50 values the geometric mean was used. Results are presented as mean graph plots or heat maps (individual IC50 values relative to the geometric mean IC50 value) over all cell lines as tested.

[2] = system: CXF 2025; settings: CXF 2025, Colorectal; for IC50: Homo sapiens
Experimental: as §1, §2, §3

[3] = system: PAXF 2094; settings: PAXF 2094, Pancreas; for IC50: Homo sapiens
Experimental: as §1, §2, §3

[4] = system: LXFA 923; settings: LXFA 923, Lung Adeno; for IC50: Homo sapiens
Experimental: as §1, §2, §3

[5] = system: MAXF 713; settings: MAXF 713, Breast; for IC50: Homo sapiens
Experimental: as §1, §2, §3

[6] = system: BXF 1352; settings: BXF 1352, Bladder; for IC50: Homo sapiens
Experimental: as §1, §2, §3

[7] = system: LXFL 1072; settings: LXFL 1072, Lung Large Cell; for IC50: Homo sapiens
Experimental: as §1, §2, §3

[8] = system: LXFL 529; settings: LXFL 529, Lung Large Cell; for IC50: Homo sapiens
Experimental: as §1, §2, §3

[9] = system: HNXF 1842; settings: HNXF 1842, Head and Neck; for IC50: Homo sapiens
Experimental: as §1, §2, §3

[10] = system: CXF 975; settings: CXF 975, Colorectal; for IC50: Homo sapiens
Experimental: as §1, §2, §3

[11] = system: BXF 1036; settings: BXF 1036, Bladder; for IC50: Homo sapiens
Experimental: as §1, §2, §3

[12] = system: OVXF 1023; settings: OVXF 1023, Ovarian; for IC50: Homo sapiens, OVXF1023
Experimental: as §1, §2, §3

O[C@H](c1cc(-c2ccc(Cl)cc2)nc2ccccc12)[C@@H]1CCCCN1 [S1, (R)-(2-(4-chlorophenyl)quinolin-4-yl)((S)-piperidin-2-yl)methanol]
b (bottom plateau of concentration-effect curve) [1]: 13
t (top plateau of concentration-effect curve) [1]: 94
IC50 ([1]; read-out: abs. IC50): 8.84 µM
IC50 ([1]; read-out: rel. IC50): 8.79 µM
b (bottom plateau of concentration-effect curve) [2]: 33
t (top plateau of concentration-effect curve) [2]: 97
IC50 ([2]; read-out: abs. IC50): 8.87 µM
IC50 ([2]; read-out: rel. IC50): 8.61 µM
IC50 ([3]; read-out: abs. IC50): 8.88 µM
IC50 ([3]; read-out: rel. IC50): 8.64 µM
b (bottom plateau of concentration-effect curve) [3]: 30
t (top plateau of concentration-effect curve) [3]: 105
IC50 ([4]; read-out: abs. IC50): 8.55 µM
IC50 ([4]; read-out: rel. IC50): 8.44 µM
b (bottom plateau of concentration-effect curve) [4]: 21
t (top plateau of concentration-effect curve) [4]: 101
IC50 ([5]; read-out: abs. IC50): 9.16 µM
IC50 ([5]; read-out: rel. IC50): 8.6 µM
b (bottom plateau of concentration-effect curve) [5]: 43
t (top plateau of concentration-effect curve) [5]: 108
b (bottom plateau of concentration-effect curve) [6]: 0
t (top plateau of concentration-effect curve) [6]: 97
IC50 ([6]; read-out: abs. IC50): 18.5 µM
IC50 ([6]; read-out: rel. IC50): 19 µM
IC50 ([7]; read-out: abs. IC50): 7.6 µM
IC50 ([7]; read-out: rel. IC50): 7.58 µM
b (bottom plateau of concentration-effect curve) [7]: 0
t (top plateau of concentration-effect curve) [7]: 101
IC50 ([8]; read-out: abs. IC50): 10.4 µM
IC50 ([8]; read-out: rel. IC50): 10.1 µM
b (bottom plateau of concentration-effect curve) [8]: 11
t (top plateau of concentration-effect curve) [8]: 92
b (bottom plateau of concentration-effect curve) [9]: 15
t (top plateau of concentration-effect curve) [9]: 77
IC50 ([9]; read-out: abs. IC50): 5.4 µM
IC50 ([9]; read-out: rel. IC50): 5.53 µM
b (bottom plateau of concentration-effect curve) [10]: 19
t (top plateau of concentration-effect curve) [10]: 105
IC50 ([10]; read-out: abs. IC50): 8.75 µM
IC50 ([10]; read-out: rel. IC50): 8.62 µM
b (bottom plateau of concentration-effect curve) [11]: 30
t (top plateau of concentration-effect curve) [11]: 95
IC50 ([11]; read-out: abs. IC50): 5.3 µM
IC50 ([11]; read-out: rel. IC50): 5 µM
IC50 ([12]; read-out: abs. IC50): 7.49 µM
IC50 ([12]; read-out: rel. IC50): 6.84 µM
b (bottom plateau of concentration-effect curve) [12]: 11
t (top plateau of concentration-effect curve) [12]: 100
